Columns and labels:
[1] = system: IL-1β release from human monocytes-derived macrophages; assay: Suppression of IL-1β release from human monocytes-derived macrophages (LPS priming, nigericin release, ELISA); format: cell-based
Procedure: Peripheral blood mononuclear cells (PBMCs) were isolated from blood of 11 healthy human donors and differenciates in macrophages using GM-CSF (5 ng/ml) for 5 days. They were stimulated with 1 μg/mL with lipopolysaccharide (LPS, priming phase) at time zero. At 30 minutes, they were incubated with different concentrations of dapansutrile (OLT1177®) from 0.001-50 μM. At 4 hours, 10 μM of nigericin (NIG, release phase) was added. At the end of an 5 hour incubation period, the supernatant was harvested and assayed for IL-1β using respective ELISA kits following manafacturer's protocols.

[2] = system: zymosan-induced knee joint swelling in mice; assay: Zymosan-induced knee arthritis in mice: macroscopic joint swelling; format: in vivo; conditions: 600 mg/kg oral gavage, zymosan 180 μg intra-articular, 24 hours, vs vehicle-treated mice
Procedure: Zymosan injected directly into the knee joint of mice elicits an inflammatory response and is used as a model of arthritis (Verschure et al, Ann. Rheum Dis. 53:455-460, 1994). Endpoints measured in this model include knee joint swelling score, cytokine levels in the synovial tissue and microscopic pathology of the knee.
(§1) Arthritis was induced in mice by intra-articular injection of zymosan (180 μg) into the knee joint (at time zero) of both knees in each mouse. Mice were treated by oral gavage with vehicle (water, n=5) or dapansutrile in vehicle (600 mg/kg, n=4) at times −25 hr, −13 hr, and −1 hr. After zymosan injection at time zero, mice were further treated with vehicle or dapansutrile (600 mg/kg) at times +11 hr and +23 hr. Mice were sacrificed 24 hours following the Zymosan intraarticulr idministration.
Macroscopic joint swelling was assessed on all knees after the skin is removed using a scoring system ranging from 0 to 3, with 0 being no swelling and 3 being severe swelling.

[3] = system: mouse IL-1β in synovial membrane; assay: Zymosan-induced knee arthritis in mice: IL-1β in synovial membrane (ELISA); format: in vivo; conditions: 600 mg/kg oral gavage, 24 hours, vs untreated mice
Procedure: as §1
In addition, synovial membrane was taken from one knee per mouse and the cells were lysed for measurement of mouse IL-1β, using an ELISA kit from R&D Systems, Inc., following manufacturer's protocols. The results are shown as mean±standard error of mean and statistical evaluation is performed.

[4] = system: caspase-1 (p10) in J774A.1 cells; assay: Western blot for caspase-1 (p45 and p10) in J774A.1 cells after LPS/ATP stimulation; format: cell-based, mouse
Procedure: (§2) J774A.1 murine macrophages cells were stimulated with 1 μg/ml lipopolysaccharide (LPS) for 4 hours and either nigericin (NIG, 10 μM) or ATP (5 mM) was added for 1 hour. Dapansutrile OLT1177® was added to the cells either 30 minutes following LPS stimulation or at the same time as ATP.
A subunit of activated caspase-1 (p10) was reduced in J774A.1 cells in the presence of dapansutrile.

[5] = system: caspase-1 activity in J774A.1 cells; assay: Caspase-1 activity in J774A.1 cell lysates after LPS and nigericin stimulation; format: cell-based, mouse; conditions: 50 μM, LPS/NIG set at 100%, n=3, p<0.05
Procedure: as §2
Caspase-1 activity is expressed as percent change of the mean value of each assay (n=3) with LPS/NIG set at 100%. Caspase-1 (Cas-1) activity was reduced by 35% (p<0.05) in an enzymatic assay of cell lysate from stimulated cells in the presence of dapansutrile, comparing with control.

[6] = in vivo; cited from earlier work

| Compound | Release of IL-1β from stimulated monocytes-derived macrophages ([1]; LPS priming, nigericin release, compared to control) | Concentration at which maximum suppression effect on IL-1β release was observed ([1]; human monocytes-derived macrophages, LPS 1 μg/mL + nigericin 10 μM, tested 0.001-50 μM) [µM] | Macroscopic joint swelling (score 0 to 3) [2] | Level of IL-1β in synovial membrane [3] | Subunit of activated caspase-1 (p10), Western blot [4] | Reduction of caspase-1 activity [5] [%] | Half-life [6] [days] |
| --- | --- | --- | --- | --- | --- | --- | --- |
| CS(=O)(=O)CCC#N [dapansutrile, 3-methanesulfonylpropionitrile] | suppresses the release of IL-1β | 1 | significant reduction in the joint swelling | significantly reduced | reduced | 35 |  |
| Canakinumab: fully human selective monoclonal anti-IL-1β antibody |  |  |  |  |  |  | 28 |

Source: US20200170990A1, “METHOD FOR TREATING SCHNITZLER'S SYNDROME” (OLATEC THERAPEUTICS LLC, priority 2017, published 2020)
